What is called MIC is the lowest concentration found to suppress growth. The low end stands for inhibition by little substance, the high end for a need for much substance.

Test [1] has as its system Eschericia coli (E. coli) strain ATCC25922. Briefly: standard microdilution assay to determine minimum inhibitory concentrations (MICs), E. coli. Format: cell-based. As to conditions: Escherichia coli. The method, then: (§1) The in vitro activity of the compounds of the present disclosure can be determined. Antimicrobial testing is typically performed to determine the minimum inhibitory concentration (MIC). Minimum inhibitory concentrations (MICs) are determined by the microdilution method in a final volume of 100 μl according to protocols outlined by The Clinical and Laboratory Standards Institute (CLSI). Performance standards for reference strains are assessed within the same experimental design to maintain quality control. See, for example, Clinical Laboratory Standards Institute: Methods for dilution antimicrobial susceptibility tests for bacteria that grow aerobically M7-A8. Approved Standard-Eighth Edition. Wayne, PA: CLSI; December 2008: and Clinical Laboratory Standards Institute: Performance Standards for Antimicrobial Susceptibility Testing M100-S20; Approved Standard-Twentieth Edition. Wayne, PA: CLSI; June 2010. The compounds of the present disclosure were tested for antimicrobial activity. The Compounds 1-122 were run against Eschericia coli (E. coli) strain ATCC25922 and against Staphylococcus aureus (S. aureus) 11540 strain using a standard microdilution assay to determine minimum inhibitory concentrations (MICs). […] It will be recognized by one skilled in the art that the compounds can be assessed against other bacterial organisms and that the presentation of data for activity against Eschericia coli and Staphylococcus aureus are illustrative and in no way is intended to limit the scope of the present disclosure. The compounds of the present disclosure can be assayed against a range of other microorganisms depending upon the performance activity desired to be gathered. Furthermore, the “+” and “−” representation and the selection of a cutoff value of 16 micrograms/mL is also illustrative and in no way is intended to limit the scope of the present disclosure.
In general terms: In broth dilution the organism is exposed to a series of concentrations in liquid medium.

In test [2] the test system is Staphylococcus aureus (S. aureus) 11540 strain. Nature of the test: standard microdilution assay to determine minimum inhibitory concentrations (MICs), S. aureus. Format: cell-based. On the procedure:
as §1

Each structure is given as a SMILES string. A value given as a limit tells only on which side of the number the result lay.

With `C[C@H](N)CCO[C@H]1CNC(c2cc3cn(-c4ccc([C@@H]5CCC[C@@H](CCSC(=N)N)N5)cc4)c(=O)nc3[nH]2)C1` (stereo partly drawn) [Compound 47], the MIC in test [1] and in test [2] was at most 16 µg/mL each time.
As to `CNC(=N)SCC[C@@H]1CCC[C@@H](c2ccc(-n3cc4cc(-c5cc(CCC[C@H](C)N)cc(Cl)c5F)[nH]c4nc3=O)cc2)N1` [Compound 41], the MIC in test [1] and in test [2] was at most 16 µg/mL in each case.
Turning to `C=CCN1[C@H](CCSC(=N)N)CCC[C@H]1c1ccc(-n2cc3cc(-c4cc(CCC[C@H](C)N)cc(Cl)c4F)[nH]c3nc2=O)cc1` [Compound 46], the MIC in test [1] and in test [2] was at most 16 µg/mL each time.
Regarding `CCCN1[C@H](CCSC(=N)N)CCC[C@H]1c1ccc(-n2cc3cc(-c4cc(CCC[C@H](C)N)cc(Cl)c4F)[nH]c3nc2=O)cc1` [Compound 56], the MIC in test [1] and in test [2] was at most 16 µg/mL each time.
Take `C[C@H](N)CCCc1cc(Cl)c(F)c(-c2cc3cn(-c4ccc([C@H]5C[C@H](CCSC(=N)N)C(=O)N5C)cc4)c(=O)nc3[nH]2)c1` [Compound 115]: the MIC in test [1] was above 16 µg/mL; in test [2], at most 16 µg/mL.
For the compound `C[C@H](N)CCCc1cc(Cl)c(F)c(-c2cc3cn(-c4ccc([C@H](C)NCCCSC(=N)N)cc4)c(=O)nc3[nH]2)c1` [Compound 9], the MIC in test [1] and in test [2] was at most 16 µg/mL in each case.
With `C[C@H](N)CCCc1cc(Cl)c(F)c(-c2cc3cn(-c4ccc([C@@H]5CCC[C@@H](CCSC(=N)N)N5)c(F)c4)c(=O)nc3[nH]2)c1` [Compound 21], the MIC in test [1] and in test [2] was at most 16 µg/mL in each case.
For `Cc1ccccc1OC[C@H](N)CCCc1cc(Cl)c(F)c(-c2cc3cn(-c4ccc([C@@H]5CCC[C@@H](CCSC(=N)N)N5)cc4)c(=O)nc3[nH]2)c1` [Compound 40], the MIC in test [1] and in test [2] was at most 16 µg/mL in each case.
Turning to `C[C@@H]1CNC(c2cc3cn(-c4ccc([C@@H]5CCC[C@@H](CCSC(=N)N)N5)cc4)c(=O)nc3[nH]2)C1` (stereo partly drawn) [Compound 61], the MIC in test [1] and in test [2] was at most 16 µg/mL each time.
Take `C[C@H](N)CCCN1C=C(c2cc3cn(-c4ccc([C@@H]5CCC[C@@H](CCSC(=N)N)N5)cc4)c(=O)nc3[nH]2)CCC1` [Compound 58]: the MIC in test [1] and in test [2] was at most 16 µg/mL each time.
Regarding `CC(C)SC(=N)NCC[C@@H]1CCC[C@@H](c2ccc(-n3cc4cc(-c5cc(CCC[C@H](C)N)cc(Cl)c5F)[nH]c4nc3=O)cc2)N1` [Compound 119], the minimum inhibitory concentration (MIC) in test [1] and in test [2] was at most 16 µg/mL each time.
For `C[C@H](N)CCCN1CCCCC1c1cc2cn(-c3ccc([C@@H]4CCC[C@@H](CCSC(=N)N)N4)cc3)c(=O)nc2[nH]1` (stereo partly drawn) [Compound 33], the MIC in test [1] and in test [2] was at most 16 µg/mL each time.
With `C[C@H](N)CCCc1cc(Cl)c(F)c(-c2cc3cn(-c4ccc([C@@H]5CCCCN5CCCSC(=N)N)cc4)c(=O)nc3[nH]2)c1` [Compound 12], the MIC in test [1] and in test [2] was at most 16 µg/mL in each case.
As for `N=C(N)SCC[C@@H]1CCC[C@@H](c2ccc(-n3cc4cc(-c5cc(CCC[C@@H](N)CO)cc(Cl)c5F)[nH]c4nc3=O)cc2)N1` [Compound 8], the MIC in test [1] and in test [2] was at most 16 µg/mL in each case.
Take `C[C@H](CO)CN1[C@H](CCSC(=N)N)CCC[C@H]1c1ccc(-n2cc3cc(-c4cc(CCC[C@H](C)N)cc(Cl)c4F)[nH]c3nc2=O)cc1` [Compound 105]: the MIC in test [1] and in test [2] was at most 16 µg/mL throughout.
`C[C@H](N)CCCc1cc(Cl)c(F)c(-c2cc3cn(-c4ccc([C@@H]5CCC[C@@H](CCSC(=N)N)N5CCC5CC5)cc4)c(=O)nc3[nH]2)c1` [Compound 103]: the MIC in test [1] and in test [2] was at most 16 µg/mL in each case.
Turning to `C[C@@H](N)CCCN1C(c2cc3cn(-c4ccc([C@@H]5CCC[C@@H](CCSC(=N)N)N5)cc4)c(=O)nc3[nH]2)CC[C@@H]1c1ccccc1` (stereo partly drawn) [Compound 77], the MIC was at most 16 µg/mL in test [1] and above 16 µg/mL in test [2].
As for `N=C(N)SCC[C@@H]1CCC[C@@H](c2ccc(-n3cc4cc(-c5cc(CCC[C@@H](N)C6CC6)cc(Cl)c5F)[nH]c4nc3=O)cc2)N1CCCF` [Compound 5], the MIC in test [1] and in test [2] was at most 16 µg/mL throughout.
In the case of `COCCN1[C@H](CCSC(=N)N)CCC[C@H]1c1ccc(-n2cc3cc(-c4cc(CCC[C@H](C)N)cc(Cl)c4F)[nH]c3nc2=O)cc1` [Compound 97], the MIC in test [1] is above 16 µg/mL; in test [2], at most 16 µg/mL.
On to `C[C@H](N)CCCc1cc(Cl)c(F)c(-c2cc3cn(-c4ccc([C@@H]5CCC[C@@H](CCSC(=N)N)N5CCC5CCOCC5)cc4)c(=O)nc3[nH]2)c1` [Compound 102], for which the MIC in test [1] and in test [2] was at most 16 µg/mL in each case.
As for `C[C@@H](N)CCCN1C[C@H](Cc2ccccc2)CC1c1cc2cn(-c3ccc([C@@H]4CCC[C@@H](CCSC(=N)N)N4)cc3)c(=O)nc2[nH]1` (stereo partly drawn) [Compound 76], the MIC in test [1] and in test [2] was at most 16 µg/mL in each case.
In the case of `CC(C)CN1[C@H](CCSC(=N)N)CCC[C@H]1c1ccc(-n2cc3cc(-c4cc(CCC[C@H](C)N)cc(Cl)c4F)[nH]c3nc2=O)cc1` [Compound 90], the MIC in test [1] and in test [2] was at most 16 µg/mL throughout.
As to `N=C(N)SCC[C@@H]1CCC[C@@H](c2ccc(-n3cc4cc(-c5cc(CCC[C@@H](N)C6CC6)cc(Cl)c5F)[nH]c4nc3=O)cc2)N1CCCO` [Compound 7], the MIC in test [1] and in test [2] was at most 16 µg/mL each time.
For the compound `CCc1cc(CCC[C@H](C)N)cc(-c2cc3cn(-c4ccc([C@@H]5CCC[C@@H](CCSC(=N)N)N5)cc4)c(=O)nc3[nH]2)c1F` [Compound 85], the MIC in test [1] and in test [2] was at most 16 µg/mL each time.
With `C[C@H](N)CCCc1cc(Cl)c(F)c(-c2cc3cn(-c4ccc([C@@H]5CCC=C[C@@H](CCSC(=N)N)N5)cc4)c(=O)nc3[nH]2)c1` [Compound 59], the MIC in test [1] and in test [2] was at most 16 µg/mL each time.
For the compound `N=C(N)SCC[C@@H]1CCC[C@@H](c2ccc(-n3cc4cc(-c5cc(CCC[C@@H](N)C6CC6)cc(Cl)c5F)[nH]c4nc3=O)cc2)N1` [Compound 1], the MIC in test [1] and in test [2] was at most 16 µg/mL each time.
Regarding `C[C@H]1CC(c2cc3cn(-c4ccc([C@@H]5CCC[C@@H](CCSC(=N)N)N5)cc4)c(=O)nc3[nH]2)N(CCC[C@@H](C)N)C1` (stereo partly drawn) [Compound 67], the MIC in test [1] and in test [2] was at most 16 µg/mL each time.
Take `C[C@H](N)CCCc1cc(Cl)c(F)c(-c2cc3cn(-c4ccc([C@H](C)NCC[C@H](C)SC(=N)N)cc4)c(=O)nc3[nH]2)c1` [Compound 26]: the MIC in test [1] and in test [2] was at most 16 µg/mL throughout.
On to `C[C@@H](O)CNCc1cc(Cl)c(F)c(-c2cc3cn(-c4ccc([C@@H]5CCC[C@@H](CCSC(=N)N)N5)cc4)c(=O)nc3[nH]2)c1` [Compound 38], for which the MIC in test [1] and in test [2] was at most 16 µg/mL each time.
For `C[C@@H](N)CCCN1C[C@H](F)CC1c1cc2cn(-c3ccc([C@@H]4CCC[C@@H](CCSC(=N)N)N4)cc3)c(=O)nc2[nH]1` (stereo partly drawn) [Compound 69], the MIC in test [1] and in test [2] was at most 16 µg/mL throughout.
As for `C[C@H](N)CCc1cc(Cl)c(F)c(-c2cc3cn(-c4ccc([C@@H]5CCC[C@@H](CCSC(=N)N)N5)cc4)c(=O)nc3[nH]2)c1` [Compound 37], the MIC in test [1] and in test [2] was at most 16 µg/mL each time.
Regarding `C[C@H](O)CNCc1cc(Cl)c(F)c(-c2cc3cn(-c4ccc([C@@H]5CCC[C@@H](CCSC(=N)N)N5)cc4)c(=O)nc3[nH]2)c1` [Compound 30], the MIC in test [1] and in test [2] was at most 16 µg/mL throughout.
`C[C@@H](N)CCCN1C[C@H](CO)CC1c1cc2cn(-c3ccc([C@@H]4CCC[C@@H](CCSC(=N)N)N4)cc3)c(=O)nc2[nH]1` (stereo partly drawn) [Compound 81]: the MIC in test [1] and in test [2] was at most 16 µg/mL throughout.
For `N=C(N)SCCCN1[C@H](CCO)CCC[C@H]1c1ccc(-n2cc3cc(-c4cc(CCC[C@@H](N)C5CC5)cc(Cl)c4F)[nH]c3nc2=O)cc1` [Compound 18], the minimal inhibitory concentration (MIC) in test [1] and in test [2] was at most 16 µg/mL each time.
In the case of `C[C@H](N)CCCc1cc(Cl)c(F)c(-c2cc3cn(-c4ccc([C@@H]5CCC[C@@H](CCO)N5CCCSC(=N)N)cc4)c(=O)nc3[nH]2)c1` [Compound 17], the MIC in test [1] and in test [2] was at most 16 µg/mL each time.
In the case of `C[C@@H](N)Cc1cc(Cl)c(F)c(-c2cc3cn(-c4ccc([C@@H]5CCC[C@@H](CCSC(=N)N)N5)cc4)c(=O)nc3[nH]2)c1` [Compound 24], the MIC in test [1] and in test [2] was at most 16 µg/mL throughout.
With `C[C@H](N)CCCc1cc(-c2cc3cn(-c4ccc([C@@H]5CCC[C@@H](CCSC(=N)N)N5)cc4)c(=O)nc3[nH]2)cc(C(C)(F)F)c1` [Compound 89], the MIC in test [1] and in test [2] was at most 16 µg/mL throughout.
On to `CC(N)c1cc(Cl)c(F)c(-c2cc3cn(-c4ccc([C@@H]5CCC[C@@H](CCSC(=N)N)N5)cc4)c(=O)nc3[nH]2)c1` (stereo partly drawn) [Compound 54], for which the MIC in test [1] and in test [2] was at most 16 µg/mL in each case.
For the compound `CSCCN1[C@H](CCSC(=N)N)CCC[C@H]1c1ccc(-n2cc3cc(-c4cc(CCC[C@H](C)N)cc(Cl)c4F)[nH]c3nc2=O)cc1` [Compound 91], the MIC in test [1] and in test [2] was at most 16 µg/mL in each case.

The values above are taken from patent publication US12234238B2, “Antimicrobial compounds and methods of making and using the same” (BIOVERSYS AG, priority 2017, dated 2025).
